In test [1] the test system is T47D. Briefly: Apoptosis by flow cytometry (annexin V-FITC/PI), T47D. The class given is cell-based, human. As to conditions: 10 μM, 36 h. The protocol: (§1) Apoptosis study was performed by flow cytometry using annexin V-FITC-labeled apoptosis detection kit (Sigma) following manufacturer's protocol. Cells (□×□□^□ cells/well) were seeded in six-well plates and incubate for 16-18 h. After 16-18 h, cells were either kept untreated or treated with 10 μM compound 1 and 10 μM 6c for 36 h. Next, cells were trypsinized and washed with PBS. Then the cells were re-suspended in 1× binding buffer at a density of 1×10^6 cells/ml and stained simultaneously with FITC-labeled annexin V (25 ng/ml) and propidium iodide (50 ng/ml). After 15 min incubation, cells were analyzed using a flow cytometer (FACS Canto II, Becton-Dickinson, San Jose, Calif., USA), and data were analyzed with FCS Express V3 software. Minimum of 10000 events were gated per sample.
A general note: In flow cytometry, cells or beads pass a laser one at a time.

Test [2] deals with B16F10. Briefly: Apoptosis by flow cytometry (annexin V-FITC/PI), B16F10. In kind it is cell-based, murine. To be noted: B16F10, 10 μM, 36 h. How it is done:
as §1

For test [3], the system named is apoptosis related protein in B16F10 cells. The experiment in a line: Western blot of B16F10 cell lysates: apoptosis related protein (FIG. 4A). The class given is cell-based, murine. As to conditions: B16F10, 10 μM, 36 h. How it is done: (§2) For in vitro cell lysate preparation, B16F10 cells were either treated with compound 1 (10 μM), 6c (10 μM) or kept untreated for 36 h continuously. After that cells were washed with cold PBS for two times, and lysed by incubating for 30 min on ice with ice-cold RIPA lysis buffer (50 mM Tris [pH 7.5], 1% NP-40, 150 mM NaCl, 0.1% sodium dodecyl sulfate [SDS], 0.5% sodium deoxycholate) containing 1% proteinase inhibitor cocktails (PIC) (Cell Signaling Technology). Following 30 min of incubation cells were centrifuged at 14,000 rpm at 4° C. for 15 minutes, supernatant was collected, and Protein concentration was measured by using BCA assay a kit (thermo scientific). For in vivo whole cell lysate, after completion of the in vivo experiment one C57BL/6J mice with representative tumor size from each group was sacrificed and tumor was collected, lysed by ice-cold RIPA buffer with 1% PIC, whole cell lysate was prepared following the same steps as mentioned above. Respective cell lysates were run in SDS-PAGE gel (8%-15%) and then the bands were transferred to polyvinylidene fluoride (PVDF) membrane. Membranes were then first incubated with respective primary antibodies and then with alkaline phosphates conjugated secondary antibody (Goat-anti-rabbit and Goat-anti-mouse). Immunodetection was performed with BCIP/NBT substrate (Sigma-Aldrich).
(§3) Cytochrome-C (4272S), BAX (2772S), Bcl-2 (2876S), Cassepase-3 (9665S), β-actin (8457S), PI3K-p110α (4249S), PI3K-p85 (4257S), AKT (272S), p-AKT (4060S), PTEN (9552S), p-mdm2 (3521S), p53 (2524S), GAPDH (5174S) were purchased from Cell Signaling Technology; Casepase-9 (PA5-16358) was purchased from Pierce; mdm2 (ab38618) was purchased from Abcam; secondary antibodies mouse anti-rabbit IgG-PE (sc-3753) was purchased from Santa Cruz Biotechnology; Goat anti-mouse IgG Alkaline Phosphatase (DC05L) and goat anti-rabbit IgG Alkaline Phosphatase (DC06L) were purchased from Calbiochem.
For orientation: A western blot detects proteins with antibodies after separation by electrophoresis.

Test [4] relates to PI3K/AKT pathway involving protein in B16F10 cells. Briefly: Western blot of B16F10 cell lysates: PI3K/AKT pathway involving protein (FIG. 4B). In kind it is cell-based, murine. As to conditions: B16F10, 10 μM, 36 h. How it is done: as §2, §3
Test [5] concerns B16F10 tumor. The experiment in a line: In vivo tumor study, B16F10 melanoma model. Also noted: species or system C57BL6/J mice. To be noted: 15 mg/Kg i.p., 5 injections. The protocol: 6-8 weeks old female C57BL6/J mice, obtained from CCMB (Hyderabad, India), were subcutaneously inoculated with 2.5×10^5 B16F10 cells in the lower left abdomen. Thirteen days after B16F10 cell inoculation, mice were grouped as per the treatment where each group contained 5 mice. The groups were as follows (i) untreated group, (ii) treated with progesterone (compound 1) (6 mg/Kg) and (iii) 6c (15 mg/Kg). Each compound suspended in PBS containing 10% DMSO and injected intraperitoneally to the respective mice. Five injections were given with a gap of 2 days. The tumor sizes were measured in volume (mm^3) and calculated using the formula (0.5ab^2), where ‘a’ represents the longest dimension and ‘b’ is the shortest dimension of the tumors. Experiment was terminated when the average tumor volume of the untreated group reached ˜4000 mm^3. All animal work was done following the protocols approved by Institutional Animal Ethical Committee of CSIR-IICT, India.

Test [6] concerns B16F10 tumor lysate proteins. Briefly: Western blot analysis with B16F10 tumor lysates (FIG. 5B). The arrangement: species or system C57BL/6J mice. To be noted: B16F10 tumor lysate after in vivo treatment. How it is done:
as §2, with “(Sigma-Aldrich). […]” for “(Sigma-Aldrich).”

`CCCCCCCCCC[N+](C)(CCCCCCCCCC)CCNC(=O)CCC(=O)O[C@@H](C)[C@H]1CCC2C3CCC4=CC(=O)CC[C@]4(C)C3CC[C@@]21C` (stereo partly drawn) [Compound 6c, N-decyl-N-(2-(4-((1S)-1-((10R,13S,17S)-10,13-dimethyl-3-oxo-2,3,6,7,8,9,10,11,12,13,14, 15,16,17-tetradecahydro-1H-cyclopenta[a]phenanthren-17-yl)ethoxy)-4-oxobutanamido)ethyl)-N-methyldecan-1-aminium chloride]: the apoptotic cell in test [1] came out at 73%. This compound had an apoptotic cell in test [2] of 53.22%. In test [3], the “BAX/Bcl-2 ratio compared to untreated group” value is on record as about 4 fold, the “caspase 3 expression” value is “increase in level”, the “caspase 9” value is given as “formation of active caspase 9” and the “cytochrome C expression” value is listed as “elevated expression”. For the same compound, in test [4], the PTEN protein expression entry was “elevated expression”; the “expression of catalytic and regulatory subunit of PI3K protein” value is “decrease in the expression”; the p53 expression level result was “elevated the expression level”; the “p-AKT level compared to PR treated group” value is “significant reduction”. Further, the pMdm2 level result in test [4] is reported as “reduced”. Besides, the “tumor growth and aggression versus UT and progesterone-treated groups” value in test [5] (B16F10 in C57BL6/J mice) is “significant inhibition”. In addition, the “tumor size of UT group compared to treated group” value in test [5] (day 25 from tumor cell inoculation) is on record as about 4 times. In test [6], the “caspase 3 in tumor lysate” value is on record as “increase” and the “p53 expression level in tumor lysate” value was “significant increase”.

For the origin of these results see patent US10100079B2, “Progesterone-cationic lipid hybrid as anticancer agent and the process of synthesis thereof” (Council of Scientific & Industrial Research, priority 2016, dated 2018).
